According to US20070117851A1, “Liquid pharmaceutical compositions of nimodipine” (TRANSFORM PHARMACEUTICALS, INC., priority 2005, published 2007):
In brackets after ≈: the same amount, converted by molar mass.

What was measured:
[1] = Chemical stability of nimodipine in the Table 2 composition via HPLC; type: physicochemical
Method: The chemical stability of nimodipine was measured at 40 and 60 degrees C. via HPLC in a composition described in Table 2.
FIGS. 1 and 2 show the chemical stability of nimodipine in the composition described in Table 2 at 40 and 60 degrees C., respectively. These Figures show data acquired with compositions having a pH of 5, 6, and 7, over a period of four weeks. […] Subsequent data has also been acquired over a period of 8 weeks.

[2] = Nimodipine equilibrium solubility in alcohol/solvent/water mixtures; type: physicochemical; settings: 10% ethanol
Method: The effect of several alcohol and solvent concentrations on nimodipine solubility in water was studied. Nimodipine equilibrium solubility was tested at room temperature with the following solutions: • 1. Various % (v/v) of ethanol in 10 mM pH 6.8 citrate buffer • 2. Various % (w/w) of Cremophor® EL in 10 mM pH 6.8 citrate buffer • 3. Various % (v/v) of ethanol with 30% (w/w) Cremophor® EL in 10 mM pH 6.8 citrate buffer • 4. Various % (w/w) of propylene glycol (PG) in the solution of 30% Cremophor™ EL and 10% ethanol in citrate buffer at pH 6.8 • 5. Various % (w/w) of propylene glycol (PG) in the solution of 20% Cremophor® EL and 10% ethanol in citrate buffer at pH 6.8 • 6. Various % (w/w) of PEG 400 in the solution of 20% Cremophor® EL and 10% ethanol in citrate buffer at pH 6.8 • 7. Various % (w/w) of PEG400 in the solution of 30% Cremophor® EL and 10% ethanol in citrate buffer at pH 6.8 • 8. Various % (w/w) of mixture of PG/PEG400 at 1:1 (w/w) in the solution of 30% Cremophor® EL and 10% ethanol in citrate buffer at pH6.8 The above solutions were prepared by weight except solution 1 which the percent ethanol was mixed with citrate buffer by volume. […] Concentration of each sample was determined by HPLC based on a standard curve and the dilution factor of each samples solution. […]

nimodipine stability ([1]; Table 2 composition (3.0 mg/mL), 40 degrees C, pH 5, 6 and 7, four weeks, HPLC): greater than 99%
nimodipine stability ([1]; Table 2 composition (3.0 mg/mL), 60 degrees C, pH 5, 6 and 7, four weeks, HPLC): greater than 99%
nimodipine stability ([1]; Table 2 composition, 60 degrees C, pH=7, 8 weeks): greater than 99%
nimodipine solubility compared with the composition comprising 30% ethanol and 30% Cremophor EL ([2]; 30% PEG 400, FIG. 7): comparable
solubility at 24 h ([2]; aqueous with cosolvent or surfactant or cyclodextrin, thermodynamic from solid, 30% Cremophor EL, 30% PEG 400 in citrate buffer pH 6.8, room temperature, 24 hours): ~14 mg/mL (≈ 33.5 mM)
Structure (SMILES): COCCOC(=O)C1=C(C)NC(C)=C(C(=O)OC(C)C)C1c1cccc([N+](=O)[O-])c1 (centres unmarked) [nimodipine, 1,4-dihydro-2,6-dimethyl-4-(3-nitrophenyl)-3,5-pyridinedicarboxylic acid 2-methoxyethyl 1-methylethyl ester]
